Measurements published in patent US20100190957A1, “SPECIFIC THERAPY AND MEDICAMENT USING INTEGRIN LIGANDS FOR TREATING CANCER” (priority 2007, published 2010).
Where “and” joins values, the source holds several entries; their conditions need not be identical. Equal entries are not always repeated. Entries after “also recorded” stand apart in the source; their conditions may differ.

Key:
[1] = system: human umbilical vein endothelial cells (HUVECs); test: Serum growth stimulation (proliferation) assay, Alamar Blue, HUVEC; format: cell-based
Method: (§1) The effect of integrin alpha V blocker EMD 121974 (Cilengitide) on the viability of human carcinoma cells were tested, in combination with vinorelbine and paclitaxel, respectively, in a cell viability assay, dependent on reduction of Alamar blue dye. Each agent alone could inhibiting carcinoma viability, used together the compounds show an advantagous and preferably synergistic inhibitory effect.
(§2) The methods established and described in detail previously (Goodman and Hahn a; b) were used to measure the effect of combinations of integrin inhibitors and chemotherapeutics on carcinoma cell and human endothelial cell proliferation.
(§3) Points were run in duplicate or in triplicate. Reagent blanks, containing media plus Alamar Blue without cells, were run on each plate. Blank values were subtracted from test values and were routinely 5-10% of uninhibited control values.
In the growth assay Cilengitide was tested in the range of 50 μM to 0.1 nM.
(§4) Chemotherapeutic agents and αv-integrin blockers were serially diluted alone or together (combination therapy). In some assays the chemotherapeutic agent was serially diluted alone or in combination with of alpha-v integrin blocker. Growth inhibition curves were plotted and a shift of the combination therapy curve to lower concentrations in relation to the single agent curves was interpreted as an additional effect, produced by combination versus monotherapy.
(§5) The αv-integrin competitive inhibitor Cilengitide (EMD 121974) was tested alone and in combination with vinorelbine in a serum growth stimulation assay using human carcinoma cells or human umbilical vein endothelial cells (HUVECs). In these assays cells are cultured in serum, or in an endothelial growth stimulation medium (Goodman & Hahn).

[2] = system: NSCLC A549; test: Proliferation / cell viability assay, Alamar Blue, A549; format: cell-based, human; settings: for EC50: Homo sapiens, A549, agent alone or + Cilengitide
Method: as §1, §2, §3, §4, §5

[3] = system: renal carcinoma (A498); test: Proliferation / cell viability assay, Alamar Blue, A498; format: cell-based, human; settings: for EC50: Homo sapiens, A498, agent alone or + Cilengitide (2 μM constant)
Method: as §1, §2, §3, §4, §5
Cilengitide concentration is 2μM (constant).

[4] = system: SCCHN (Detroit562); test: Proliferation assay, Detroit 562; format: cell-based, human; settings: Cilengitide 2 μM (constant)
[5] = system: U251 human glioblastoma cells; test: Rat orthotopic glioblastoma model, radiotherapy / cilengitide scheduling experiments (survival); format: in vivo, NIH rnu nude rats; set-up: key to Status at Date of Termination: Sick = moribund and removed from study; Healthy = indicates sampled for tissue at date shown, but alive at this point; Alive = surviving at time point shown; settings: for Days Post Implant / Status at Date of Termination: per animal, listed as Rt + EMD; for Days Post Implant: at date of termination, plus 7 subsequent daily boluses, 4 mg/kg
Method: NIH rnu nude rats are anaesthetized, restrained, and injected intracerebrally 1 mm retro orbitally, 3mm to the right of the bregma and at a depth of 2.5 mm with 5×10E5 U251 human glioblastoma cells suspended in 10 ul of culture medium, using a #2701 Hamilton syringe fitted with a 26 gauge needle, essentially as previously described (Engebraaten et al., 1999). After 14 days, cilengitide (4 mg/kg) is given as an intraperitoneal bolus in PBS, at various time (8 h, 4 h, 2 h, 1 h) prior to a single treatment with single, collimated, dorsal-ventral beam of 6 MV x-rays, so that 95-100% of the central axis dose of 25 Gy hit the tumor volume (Kim et al., 1999). Each of the 7 subsequent days the animals also received an identical i.p. bolus of cilengitide. The animals are maintained under ad libitum food and drink until they become moribund, or are sampled for tissue analysis (in the t-4 and t-8 h groups, where the animals are healthy past 230 days post tumor injection). A Kaplan-Meier survival curve is calculated and plotted (FIG. 1) from the raw data (Table 1). All animals in the RT monotherapy group died by 120 d.

[6] = system: newly diagnosed glioblastoma (GBM); test: Phase I/IIa trial of cilengitide and temozolomide with concomitant radiotherapy in newly diagnosed glioblastoma; format: in vivo, human
Method: Patients and methods: Fifty-two pts (PS 0-1: 92%, 2: 8%; median age 57 yrs) after biopsy (n=9/17%) or tumor resection (n=43/83%) were treated with standard TMZ/RT (Stupp et al. NEJM 2005). In addition Cilengitide (500 mg i.v., 2×/week) was started one week before TMZ/RT and given throughout for the duration of chemotherapy or until progression. Primary endpoint was progression free survival rate at 6 months (target: 65%). Patients were followed with MRI every 2 months. Histopathologic diagnosis and MRI imaging were independently reviewed, MGMT promotor methylation status was assessed in 45 (86.5%) pts.

[7] = system: recurrent glioblastoma (GBM); settings: human, in vivo
Method: (§6) Methods: In this multicenter, open-label, randomized, uncontrolled study, pts with GBM and measurable disease that had relapsed after previous therapy with temozolomide and radiotherapy were randomized to receive cilengitide at doses of either 500 mg or 2000 mg i.v., 2×/week, until progression. Histopathology diagnosis and MRI imaging were subject to independent blinded review. The primary endpoint was Progression Free Survival (PFS) at 6 months (mths). Secondary endpoints included response, survival, time to disease progression, safety, tolerability and pharmacokinetics.

[8] = system: various brain tumors; settings: humans; cited from earlier work
[9] = system: recurrent glioblastoma (GBM); test: Phase IIa trial of cilengitide single agent therapy in patients with recurrent glioblastoma
Method: as §6

[10] = Homo sapiens, HUVEC, agent alone
[11] = Homo sapiens, HUVEC, in combination with 2 μM Cilengitide

## CCC1=C[C@@H]2CN(C1)Cc1c([nH]c3ccccc13)[C@@](C(=O)OC)(c1cc3c(cc1OC)N(C)[C@H]1[C@@](O)(C(=O)OC)[C@H](OC(C)=O)[C@]4(CC)C=CCN5CC[C@]31[C@@H]54)C2 [Vinorelbine]
[1]; [10]
  IC50: 20 nM
[1]; [11]
  IC50: 0.8 nM
[2]
  effect of combination with Cilengitide on growth of A549: synergistically enhanced
  EC50: 8 nM
[3]; Cilengitide constant at 2 μM
  effect of combination with Cilengitide on A498 cell proliferation: synergistically enhanced
[3]
  EC50: 60 nM
[4]
  effect of combination with Cilengitide on SCCHN (Detroit562) cell proliferation: synergistically enhanced

## CC(=O)O[C@H]1C(=O)[C@@]2(C)[C@H]([C@H](OC(=O)c3ccccc3)[C@]3(O)C[C@H](OC(=O)[C@H](O)[C@@H](NC(=O)c4ccccc4)c4ccccc4)C(C)=C1C3(C)C)[C@]1(OC(C)=O)CO[C@@H]1C[C@@H]2O [Paclitaxel]
[1]; [10]
  IC50: 10 nM
[1]; [11]
  IC50: 0.05 nM
[2]
  EC50: 8 nM
[3]
  EC50: 100 nM

## CC(C)[C@H]1C(=O)N[C@@H](CCCN=C(N)N)C(=O)NCC(=O)N[C@@H](CC(=O)O)C(=O)N[C@H](Cc2ccccc2)C(=O)N1C [Cilengitide, cyclo-(Arg-Gly-Asp-DPhe-NMeVal)]
[5]; cilengitide bolus 4 mg/kg i.p. 1 hour pre-irradiation (Rt 25 Gy)
  Days Post Implant: 112 days and 113 days and 130 days and 141 days
[5]; cilengitide bolus 4 mg/kg i.p. 2 hours pre-irradiation (Rt 25 Gy)
  Days Post Implant: 120 days and 147 days and 162 days and 196 days
[5]; cilengitide bolus 4 mg/kg i.p. 4 hours pre-irradiation (Rt 25 Gy)
  Days Post Implant: 238 Days (2×) and 254 Days (2×)
[5]; cilengitide bolus 4 mg/kg i.p. 8 hours pre-irradiation (Rt 25 Gy)
  Days Post Implant: 287 Days (2×) and 257 Days (2×)
[5]; cilengitide 4 mg/kg 1 hour pre-irradiation (Rt 25 Gy)
  Status at Date of Termination: (Sick) Sep. 1, 2005; also recorded: (Sick) Sep. 2, 2005; also recorded: (Sick) Sep. 19, 2005; also recorded: (Sick) Sep. 30, 2005
[5]; cilengitide 4 mg/kg 2 hours pre-irradiation (Rt 25 Gy)
  Status at Date of Termination: (Sick) Aug. 10, 2005; also recorded: (Sick) Sep. 6, 2005; also recorded: (Sick) Sep. 21, 2005; also recorded: (Sick) Oct. 25, 2005
[5]; cilengitide 4 mg/kg 4 hours pre-irradiation (Rt 25 Gy)
  Status at Date of Termination: (Healthy) Nov. 29, 2005; also recorded: (Alive) Dec. 15, 2005
[5]; cilengitide 4 mg/kg 8 hours pre-irradiation (Rt 25 Gy)
  Status at Date of Termination: (Alive) Dec. 15, 2005; also recorded: (Healthy) Nov. 15, 2005
[5]; t-4 and t-8 h groups, cilengitide 4 mg/kg i.p. + 25 Gy
  animals healthy past days post tumor injection: > 230 days
[6]; Cilengitide 500 mg + TMZ/RT, 5/52
  haematological grade 3 and 4 toxicity: neutropenia: 9.6%
[6]; Cilengitide 500 mg + TMZ/RT, 7/52
  haematological grade 3 and 4 toxicity: thrombocytopenia: 13.4%
[6]; Cilengitide 500 mg + TMZ/RT, 28/52
  haematological grade 3 and 4 toxicity: lymphopenia: 53.8%
[6]; Cilengitide 500 mg + TMZ/RT, n=3/52
  Treatment related non-hematologic grade 3 toxicities, patients: 5.7%
[6]; Cilengitide 500 mg i.v. 2x/week + TMZ/RT
  tolerability of the combination with TMZ/RT: well tolerated
[6]; Cilengitide 500 mg i.v. 2x/week added to standard TMZ/RT, 34/52, 95% CI 50.9-78.0%
  patients progression free at 6 months (PFS-6): 65.4%
[6]; patient with a history of sigmoid diverticulosis
  sigmoid perforation (grade 2): One
[6]; subgroup with methylated MGMT promoter (23/52), Cilengitide 500 mg + TMZ/RT, historical control 69%
  PFS-6 rate: 91%
[6]; subgroup with unmethylated MGMT promotor (22/52), Cilengitide 500 mg + TMZ/RT, historical control 40%
  PFS-6 rate: 40.9%
[1]; agent alone
  IC50: 700 nM
[7]
  CTC grade 2 cerebral hemorrhage: One
[8]
  MTD / side effect profile: no known MTD in humans
[9]; 500 mg arm
  12 mth overall survival (OS) rate: 24.4%
[9]; 500 mg arm, 95% CI 5.2-9.3 mths
  median Overall Survival (mOS): 6.5 mths
[9]; 500 mg or 2000 mg i.v. 2x/week, both arms, n=13/81 pts
  PFS rate at 6 mths: 16.1%
[9]; 2000 mg arm
  12 mth OS rate: 37.5%
[9]; 2000 mg arm, 95% CI 6.3-15.7 mths
  median Overall Survival (mOS): 9.9 mths
[9]; 500 and 2000 mg
  grade 4 therapy related AEs: No grade 4 therapy related AEs were reported
[9]; at 500 mg
  Treatment related NCI CTC grade 3 adverse event: arthralgia/myalgia: 1 patient
  Treatment related NCI CTC grade 3 adverse event: elevated liver enzymes: 1 patient
[9]; at 2000 mg
  Treatment related NCI CTC grade 3 adverse event: weight increase/edema: 1 patient
[9]; both arms, six of 81 pts
  pts still progression-free and on treatment at the time the abstract was issued: 7.4%
[9]; two dose levels (500 and 2000 mg)
  tolerability in single agent therapy: tolerated well
